{
  "source": "paper PMC5383603",
  "about": "(Journal of Korean Medical Science, 2017)",
  "key": {"gastric acid secretion": {"tested_on": "gastric acid secretion", "conditions": "cited from earlier work"}, "[1]": {"conditions": "mean ± SD"}, "[2]": {"assay": "Adverse events in the clinical study", "assay_type": "in vivo, healthy Korean volunteers", "conditions": "CYP2C19 PM group; 20 mg oral once daily for 8 days"}},
  "note": "Like-named read-outs stand apart in the source and are kept apart here.",
  "data": [
    {"smiles": "COc1c(C)cnc(C[S+]([O-])c2nc3ccc(O)cc3[nH]2)c1C", "note": "(stereo not drawn) [5-O-demethylomeprazole]", "values": [
      {"measurement": "effect on gastric acid secretion", "setting": "gastric acid secretion", "result": "does not have an effect on gastric acid secretion"}
    ]},
    {"smiles": "COc1ccc2nc(S(=O)(=O)Cc3ncc(C)c(OC)c3C)[nH]c2c1", "note": "[omeprazole sulfone]", "values": [
      {"measurement": "Metabolic ratio omeprazole sulfone (AUC0→12hr, omeprazole sulfone/AUC0→12hr, omeprazole)", "setting": "[1]; multiple dosing, EM (n = 8)", "result": "2.04 ± 2.39"},
      {"measurement": "Metabolic ratio omeprazole sulfone (AUC0→12hr, omeprazole sulfone/AUC0→12hr, omeprazole)", "setting": "[1]; multiple dosing, IM (n = 6)", "result": "0.87 ± 0.19"},
      {"measurement": "Metabolic ratio omeprazole sulfone (AUC0→12hr, omeprazole sulfone/AUC0→12hr, omeprazole)", "setting": "[1]; multiple dosing, PM (n = 8)", "result": "0.90 ± 0.30"},
      {"measurement": "Metabolic ratio omeprazole sulfone (AUC0→12hr, omeprazole sulfone/AUC0→12hr, omeprazole)", "setting": "[1]; single dosing, EM (n = 8)", "result": "0.78 ± 0.17"},
      {"measurement": "Metabolic ratio omeprazole sulfone (AUC0→12hr, omeprazole sulfone/AUC0→12hr, omeprazole)", "setting": "[1]; single dosing, IM (n = 6)", "result": "2.89 ± 2.63"},
      {"measurement": "Metabolic ratio omeprazole sulfone (AUC0→12hr, omeprazole sulfone/AUC0→12hr, omeprazole)", "setting": "[1]; single dosing, PM (n = 8)", "result": "0.65 ± 0.08"}
    ]},
    {"smiles": "COc1ccc2[nH]c([S+]([O-])Cc3ncc(C)c(OC)c3C)nc2c1", "note": "(stereo not drawn) [omeprazole, reference compound]", "values": [
      {"measurement": "duration of effect after a single dose", "setting": "gastric acid secretion; drug still effective after a single dose", "result": "24 to 72", "unit": "h"},
      {"measurement": "omeprazole-related adverse event", "setting": "[2]", "result": "No omeprazole-related adverse event"}
    ]}
  ]
}
